Structures can show the parent of a compound that is named as a salt.
Tests used:
[1] = molecular target: T1, NLRP3 (Homo sapiens, UniProt Q96P20); experiment: THP-1 cells pyroptosis assay (LPS + nigericin, resazurin readout); format: cell-based; design: Seed THP-1 cells (25,000 cells/well) containing 1.0 μg/ml LPS in 40 μl of RPMI medium; host or cells: THP-1 cells, LPS-primed and nigericin-stimulated; conditions: NLRP3 inhibitory activity in THP-1 cells, 1.0 μg/ml LPS, 5 μM nigericin
Source text: It is well established that the activation of NLRP3 leads to cell pyroptosis and this feature plays an important part in the manifestation of clinical disease (Yan-gang Liu et al., Cell Death & Disease, 2017, 8(2), e2579; Alexander Wree et al., Hepatology, 2014, 59(3), 898-910; Alex Baldwin et al., Journal of Medicinal Chemistry, 2016, 59(5), 1691-1710; Ema Ozaki et al., Journal of Inflammation Research, 2015, 8, 15-27; Zhen Xie & Gang Zhao, Neuroimmunology Neuroinflammation, 2014, 1(2), 60-65; Mattia Cocco et al., Journal of Medicinal Chemistry, 2014, 57(24), 10366-10382; T. Satoh et al., Cell Death & Disease, 2013, 4, e644). Therefore, it is anticipated that inhibitors of NLRP3 will block pyroptosis, as well as the release of pro-inflammatory cytokines (e.g. IL-1β) from the cell. THP-1 cells (ATCC # TIB-202) were grown in RPMI containing L-glutamine (Gibco #11835) supplemented with 1 mM sodium pyruvate (Sigma # S8636) and penicillin (100 units/ml)/streptomycin (0.1 mg/ml) (Sigma # P4333) in 10% Fetal Bovine Serum (FBS) (Sigma # F0804). The cells were routinely passaged and grown to confluency (˜10^6 cells/ml). On the day of the experiment, THP-1 cells were harvested and resuspended into RPMI medium (without FBS). The cells were then counted and viability (>90%) checked by Trypan blue (Sigma # T8154). Appropriate dilutions were made to give a concentration of 625,000 cells/ml. To this diluted cell solution was added LPS (Sigma # L4524) to give a […] Final Assay Concentration (FAC). 40 μl of the final preparation was aliquoted into each well of a 96-well plate. The plate thus prepared was used for compound screening. The following method step-by-step assay was followed for compound screening. • 1. Seed THP-1 cells (25,000 cells/well) containing 1.0 μg/ml LPS in 40 μl of RPMI medium (without FBS) in 96-well, black walled, clear bottom cell culture plates coated with poly-D-lysine (VWR #734-0317) • 2. Add 5 μl compound (8 points half-log dilution, with 10 μM top dose) or vehicle (DMSO 0.1% FAC) to the appropriate wells • 3. […] Add 5 μl nigericin (Sigma # N7143) (FAC 5 μM) to all wells • 5. […] At the end of the incubation period, spin plates at 300×g for 3 mins and remove supernatant • 7. Then add 50 μl of resazurin (Sigma # R7017) (FAC 100 μM resazurin in RPMI medium without FBS) and incubate plates for a further 1-2 hrs at 37° C. and 5% CO2 • 8. Plates were read in an Envision reader at Ex 560 nm and Em 590 nm • 9. IC50 data is fitted to a non-linear regression equation (log inhibitor vs response-variable slope 4-parameters) The results of the pyroptosis assay performed are summarised in Table 1 below as THP IC50.

[2] = molecular target: T1, NLRP3; experiment: Human whole blood IL1β release assay (LPS + nigericin, AlphaLisa IL-1β); format: cell-based; design: Plate out 80 μl of whole blood containing 1βg/ml of LPS in 96-well, clear bottom cell culture plate; from tissue; host or cells: human whole blood from healthy donors, LPS-primed and nigericin-stimulated; conditions: NLRP3 inhibitory activity in human whole blood, IL-1β release, 10 μM nigericin, read-out: HWB IC50
Procedure: For systemic delivery, the ability to inhibit NLRP3 when the compounds are present within the bloodstream is of great importance. For this reason, the NLRP3 inhibitory activity of a number of compounds in human whole blood was investigated in accordance with the following protocol.
Human whole blood in Li-heparin tubes was obtained from healthy donors from a volunteer donor panel. • 1. Plate out 80 μl of whole blood containing 1βg/ml of LPS in 96-well, clear bottom cell culture plate (Corning #3585) • 2. Add 10 μl compound (8 points half-log dilution with 10 μM top dose) or vehicle (DMSO 0.1% FAC) to the appropriate wells • 3. Incubate for 3 hrs at 37° C., 5% CO2 • 4. Add 10 μl Nigericin (Sigma # N7143) (10 μM FAC) to all wells • 5. Incubate for 1 hr at 37° C., 5% CO2 • 6. At the end of the incubation period, spin plates at 300×g for 5 mins to pellet cells and remove 20 μl of supernatant and add to 96-well v-bottom plates for IL-1β analysis (note: these plates containing the supernatants can be stored at −80° C. to be analysed at a later date) • 7. IL-1β was measured according to the manufacturer protocol (Perkin Elmer-AlphaLisa IL-1 Kit AL220F-5000) • 8. IC50 data is fitted to a non-linear regression equation (log inhibitor vs response-variable slope 4-parameters)

T1 sequence (Q96P20 whole entry): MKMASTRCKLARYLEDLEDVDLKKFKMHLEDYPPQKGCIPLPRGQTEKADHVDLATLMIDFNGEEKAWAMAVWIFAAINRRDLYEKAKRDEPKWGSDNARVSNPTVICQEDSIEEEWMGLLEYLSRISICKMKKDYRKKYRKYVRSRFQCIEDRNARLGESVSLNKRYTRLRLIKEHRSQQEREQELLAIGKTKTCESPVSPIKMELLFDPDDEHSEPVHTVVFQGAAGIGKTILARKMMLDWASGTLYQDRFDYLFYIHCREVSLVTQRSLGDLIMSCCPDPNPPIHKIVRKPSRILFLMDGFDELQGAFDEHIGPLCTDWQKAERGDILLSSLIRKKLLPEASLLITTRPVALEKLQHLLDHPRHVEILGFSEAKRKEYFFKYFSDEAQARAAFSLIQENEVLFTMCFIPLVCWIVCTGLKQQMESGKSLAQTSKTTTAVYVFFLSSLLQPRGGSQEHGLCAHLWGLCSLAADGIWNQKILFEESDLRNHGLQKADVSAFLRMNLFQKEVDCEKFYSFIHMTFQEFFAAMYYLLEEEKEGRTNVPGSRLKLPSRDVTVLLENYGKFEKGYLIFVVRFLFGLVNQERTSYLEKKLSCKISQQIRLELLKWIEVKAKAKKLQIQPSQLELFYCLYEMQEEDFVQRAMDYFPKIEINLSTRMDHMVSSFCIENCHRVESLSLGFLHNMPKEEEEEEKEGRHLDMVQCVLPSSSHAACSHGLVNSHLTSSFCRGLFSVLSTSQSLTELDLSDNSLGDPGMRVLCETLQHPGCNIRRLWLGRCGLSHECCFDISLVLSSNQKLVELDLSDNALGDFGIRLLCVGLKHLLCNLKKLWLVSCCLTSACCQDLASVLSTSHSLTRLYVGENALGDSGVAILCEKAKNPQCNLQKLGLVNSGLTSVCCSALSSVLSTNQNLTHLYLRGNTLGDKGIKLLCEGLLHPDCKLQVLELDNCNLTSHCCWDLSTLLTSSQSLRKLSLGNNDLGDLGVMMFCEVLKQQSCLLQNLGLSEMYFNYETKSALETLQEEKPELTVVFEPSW

Row | SMILES | IC50 [1] [µM] | IC50 [2] [µM]
1 | CN(C)C1CCN(CCCS(=O)(=O)NC(=O)Nc2c3c(cc4c2CCC4)CCC3)CC1 [Example 2, 3-(4-(Dimethylamino)piperidin-1-yl)-N-((1,2,3,5,6,7-hexahydro-s-indacen-4-yl)carbamoyl)propane-1-sulfonamide, potassium salt] | 2 to 10 | 
2 | CC(=O)NCCS(=O)(=O)NC(=O)Nc1c2c(cc3c1CCC3)CCC2 [Example 6, N-(2-(N-((1,2,3,5,6,7-Hexahydro-s-indacen-4-yl)carbamoyl)sulfamoyl)ethyl)acetamide, Potassium Salt] | 2 to 10 | 
3 | O=C(Nc1c2c(cc3c1CCC3)CCC2)NS(=O)(=O)CCCCN1CCOCC1 [Example 9, N-((1,2,3,5,6,7-Hexahydro-s-indacen-4-yl)carbamoyl)-4-morpholinobutane-1-sulfonamide, Potassium Salt] | 2 to 10 | 
4 | O=C(Nc1c2c(cc3c1CCC3)CCC2)NS(=O)(=O)CCCN1CCOCC1 [Example 15, N-((1,2,3,5,6,7-Hexahydro-s-indacen-4-yl)carbamoyl)-3-morpholinopropane-1-sulfonamide, Potassium Salt] | 1.6 to 2 | 
5 | O=C(Nc1c2c(cc3c1CCC3)CCC2)NS(=O)(=O)CCCN1CCCCC1 [Example 16, N-((1,2,3,5,6,7-Hexahydro-s-indacen-4-yl)carbamoyl)-3-(piperidin-1-yl)propane-1-sulfonamide, Potassium Salt] | 1.6 to 2 | 
6 | CCN(CC)CCS(=O)(=O)NC(=O)Nc1c2c(cc3c1CCC3)CCC2 [Example 18, 2-(Diethylamino)-N-((1,2,3,5,6,7-hexahydro-s-indacen-4-yl)carbamoyl)ethane-1-sulfonamide, potassium salt] | 2 to 10 | 
7 | CN1CCC(CS(=O)(=O)NC(=O)Nc2c3c(cc4c2CCC4)CCC3)CC1 [Example 22, N-((1,2,3,5,6,7-Hexahydro-s-indacen-4-yl)carbamoyl)-1-(1-methylpiperidin-4-yl)methanesulfonamide, Potassium Salt] | 2 to 10 | 
8 | CC(C)N1CCC(CS(=O)(=O)NC(=O)Nc2c3c(cc4c2CCC4)CCC3)C1 (centres unmarked) [Example 25, N-((1,2,3,5,6,7-Hexahydro-s-indacen-4-yl)carbamoyl)-1-(1-isopropylpyrrolidin-3-yl)methanesulfonamide, Potassium Salt] | 2 to 10 | 
9 | CC(CN(C)C)S(=O)(=O)NC(=O)Nc1c2c(cc3c1CCC3)CCC2 (centres unmarked) [Example 26, 1-(Dimethylamino)-N-((1,2,3,5,6,7-hexahydro-s-indacen-4-yl)carbamoyl)propane-2-sulfonamide, potassium salt] | 2 to 10 | 
10 | CCN1CC2(CC(S(=O)(=O)NC(=O)Nc3c4c(cc5c3CCC5)CCC4)C2)C1 [Example 38, 2-Ethyl-N-((1,2,3,5,6,7-hexahydro-s-indacen-4-yl)carbamoyl)-2-azaspiro[3.3]heptane-6-sulfonamide, potassium salt] | 2 to 10 | 
11 | CC(C)N1CC2(CC(S(=O)(=O)NC(=O)Nc3c4c(cc5c3CCC5)CCC4)C2)C1 [Example 39, N-((1,2,3,5,6,7-Hexahydro-s-indacen-4-yl)carbamoyl)-2-isopropyl-2-azaspiro[3.3]heptane-6-sulfonamide, potassium salt] | 2 to 10 | 
12 | CN1CC2(CC(S(=O)(=O)NC(=O)Nc3c4c(cc5c3CCC5)CCC4)C2)C1 [Example 40, N-((1,2,3,5,6,7-Hexahydro-s-indacen-4-yl)carbamoyl)-2-methyl-2-azaspiro[3.3]heptane-6-sulfonamide, potassium salt] | 2 to 10 | 
13 | CCN(CCCS(=O)(=O)NC(=O)Nc1c(-c2ccnc(C#N)c2)cc(F)cc1C(C)C)Cc1ccccc1 [Example 46, 3-(Benzyl(ethyl)amino)-N-((2-(2-cyanopyridin-4-yl)-4-fluoro-6-isopropylphenyl)carbamoyl)propane-1-sulfonamide] | 2 to 10 | 
14 | CN(C)C(=O)CCS(=O)(=O)NC(=O)Nc1c2c(cc3c1CCC3)CCC2 [Example 97, 3-(N-((1,2,3,5,6,7-Hexahydro-s-indacen-4-yl)carbamoyl)sulfamoyl)-N,N-dimethylpropanamide] |  | ≤ 7.5
15 | CC1(C)CCN1CCS(=O)(=O)NC(=O)Nc1c2c(cc3c1CCC3)CCC2 [Example 102, 2-(2,2-Dimethylazetidin-1-yl)-N-((1,2,3,5,6,7-hexahydro-s-indacen-4-yl)carbamoyl)ethane-1-sulfonamide] |  | ≤ 1

The next lines start with the values.

Row | IC50 [1] [µM] | IC50 [2] [µM] | SMILES
16 |  | ≤ 1 | CC1CC(C)N1CCS(=O)(=O)NC(=O)Nc1c2c(cc3c1CCC3)CCC2 (centres unmarked) [Example 103, 2-(2,4-Dimethylazetidin-1-yl)-N-((1,2,3,5,6,7-hexahydro-s-indacen-4-yl)carbamoyl)ethane-1-sulfonamide]
17 |  | ≤ 1 | CC(C)C1CCN1CCS(=O)(=O)NC(=O)Nc1c2c(cc3c1CCC3)CCC2 (centres unmarked) [Example 104, N-((1,2,3,5,6,7-Hexahydro-s-indacen-4-yl)carbamoyl)-2-(2-isopropylazetidin-1-yl)ethane-1-sulfonamide]
18 |  | ≤ 1 | CN1CCCC1CS(=O)(=O)NC(=O)Nc1c2c(cc3c1CCC3)CCC2 (centres unmarked) [Example 105, N-((1,2,3,5,6,7-Hexahydro-s-indacen-4-yl)carbamoyl)-1-(1-methylpyrrolidin-2-yl)methanesulfonamide]
19 |  | ≤ 1 | CCN1CCCC1CS(=O)(=O)NC(=O)Nc1c2c(cc3c1CCC3)CCC2 (centres unmarked) [Example 106, 1-(1-Ethylpyrrolidin-2-yl)-N-((1,2,3,5,6,7-hexahydro-s-indacen-4-yl)carbamoyl)methanesulfonamide]
20 |  | ≤ 1 | CC(C)N1CCCC1CS(=O)(=O)NC(=O)Nc1c2c(cc3c1CCC3)CCC2 (centres unmarked) [Example 107, N-((1,2,3,5,6,7-Hexahydro-s-indacen-4-yl)carbamoyl)-1-(1-isopropylpyrrolidin-2-yl)methanesulfonamide]
21 |  | ≤ 1 | CC(C)N1CCCCC1CS(=O)(=O)NC(=O)Nc1c2c(cc3c1CCC3)CCC2 (centres unmarked) [Example 109, N-((1,2,3,5,6,7-Hexahydro-s-indacen-4-yl)carbamoyl)-1-(1-isopropylpiperidin-2-yl)methanesulfonamide]
22 |  | ≤ 1 | CCN1CCCCC1CS(=O)(=O)NC(=O)Nc1c2c(cc3c1CCC3)CCC2 (centres unmarked) [Example 110, 1-(1-Ethylpiperidin-2-yl)-N-((1,2,3,5,6,7-hexahydro-s-indacen-4-yl)carbamoyl)methanesulfonamide]
23 |  | ≤ 7.5 | CC(C)n1ccc(CS(=O)(=O)NC(=O)Nc2c3c(cc4c2CCC4)CCC3)n1 [Example 111, N-((1,2,3,5,6,7-Hexahydro-s-indacen-4-yl)carbamoyl)-1-(1-isopropyl-1H-pyrazol-3-yl)methanesulfonamide]

From patent US20200331850A1, “NOVEL SULFONAMIDE CARBOXAMIDE COMPOUNDS” (Inflazome Limited, priority 2017, published 2020)
